Source: US9174994B2, “Enhanced treatment regimens using mTor inhibitors” (INTELLIKINE LLC, priority 2011, dated 2015)

Test: Phase I clinical trial: treatment-emergent adverse events (patients, n (%)), dose limiting toxicity, MTD
Type: in vivo
Protocol: Safety, maximum tolerated dose (MTD), pharmacokinetics (PK) and preliminary antitumor activity were evaluated.
Pharmacodynamic (PD) endpoints were evaluated in surrogate (peripheral blood cells [PBCs], skin) and tumor tissues for the phosphorylation of TORC1-dependent markers (4EBP1/S6), and TORC2-dependent markers (AKT/PRAS40).

CC(C)n1nc(-c2ccc3oc(N)nc3c2)c2c(N)ncnc21 [compound A]
Anaemia (2 mg/day (N = 3)): 0 (0%)
Asthenia (2 mg/day (N = 3)): 0 (0%)
Blood creatinine increased (2 mg/day (N = 3)): 0 (0%)
Coagulopathy (2 mg/day (N = 3)): 0 (0%)
Confusional state (2 mg/day (N = 3)): 0 (0%)
Cough (2 mg/day (N = 3)): 0 (0%)
Decreased appetite (2 mg/day (N = 3)): 1 (33%)
Dehydration (2 mg/day (N = 3)): 0 (0%)
Diarrhoea (2 mg/day (N = 3)): 0 (0%)
Dizziness (2 mg/day (N = 3)): 0 (0%)
Dry mouth (2 mg/day (N = 3)): 1 (33%)
Dry skin (2 mg/day (N = 3)): 0 (0%)
Dysgeusia (2 mg/day (N = 3)): 2 (67%)
Dyspepsia (2 mg/day (N = 3)): 1 (33%)
Dyspnoea (2 mg/day (N = 3)): 0 (0%)
Dyspnoea exertional (2 mg/day (N = 3)): 0 (0%)
Eye infection (2 mg/day (N = 3)): 0 (0%)
Fatigue (2 mg/day (N = 3)): 1 (33%)
Gastritis (2 mg/day (N = 3)): 0 (0%)
Gravitational oedema (2 mg/day (N = 3)): 0 (0%)
Hypercholesterolaemia (2 mg/day (N = 3)): 0 (0%)
Hyperglycaemia (2 mg/day (N = 3)): 2 (67%)
Hypocalcaemia (2 mg/day (N = 3)): 0 (0%)
Insomnia (2 mg/day (N = 3)): 0 (0%)
Lymphopenia (2 mg/day (N = 3)): 0 (0%)
Mucosal inflammation (2 mg/day (N = 3)): 0 (0%)
Muscle spasms (2 mg/day (N = 3)): 0 (0%)
Nausea (2 mg/day (N = 3)): 1 (33%)
Orthostatic hypotension (2 mg/day (N = 3)): 0 (0%)
Panniculitis (2 mg/day (N = 3)): 0 (0%)
Patients Reporting at Least One Related TEAE (2 mg/day (N = 3)): 3 (100%)
Polyuria (2 mg/day (N = 3)): 0 (0%)
Pruritus (2 mg/day (N = 3)): 0 (0%)
Rash (2 mg/day (N = 3)): 1 (33%)
Skin discolouration (2 mg/day (N = 3)): 0 (0%)
Skin exfoliation (2 mg/day (N = 3)): 0 (0%)
Thrombocytopenia (2 mg/day (N = 3)): 0 (0%)
Vomiting (2 mg/day (N = 3)): 0 (0%)
Weight decreased (2 mg/day (N = 3)): 0 (0%)
Anaemia (4 mg/day (N = 7)): 0 (0%)
Asthenia (4 mg/day (N = 7)): 0 (0%)
Blood creatinine increased (4 mg/day (N = 7)): 1 (14%)
Coagulopathy (4 mg/day (N = 7)): 0 (0%)
Confusional state (4 mg/day (N = 7)): 0 (0%)
Cough (4 mg/day (N = 7)): 0 (0%)
Decreased appetite (4 mg/day (N = 7)): 1 (14%)
Dehydration (4 mg/day (N = 7)): 0 (0%)
Diarrhoea (4 mg/day (N = 7)): 0 (0%)
Dizziness (4 mg/day (N = 7)): 0 (0%)
Dry mouth (4 mg/day (N = 7)): 1 (14%)
Dry skin (4 mg/day (N = 7)): 0 (0%)
Dysgeusia (4 mg/day (N = 7)): 3 (43%)
Dyspepsia (4 mg/day (N = 7)): 0 (0%)
Dyspnoea (4 mg/day (N = 7)): 0 (0%)
Dyspnoea exertional (4 mg/day (N = 7)): 1 (14%)
Eye infection (4 mg/day (N = 7)): 0 (0%)
Fatigue (4 mg/day (N = 7)): 2 (29%)
Gastritis (4 mg/day (N = 7)): 0 (0%)
Gravitational oedema (4 mg/day (N = 7)): 0 (0%)
Hypercholesterolaemia (4 mg/day (N = 7)): 1 (14%)
Hyperglycaemia (4 mg/day (N = 7)): 5 (71%)
Hypocalcaemia (4 mg/day (N = 7)): 0 (0%)
Insomnia (4 mg/day (N = 7)): 0 (0%)
Lymphopenia (4 mg/day (N = 7)): 1 (14%)
Mucosal inflammation (4 mg/day (N = 7)): 2 (29%)
Muscle spasms (4 mg/day (N = 7)): 0 (0%)
Nausea (4 mg/day (N = 7)): 2 (29%)
Orthostatic hypotension (4 mg/day (N = 7)): 0 (0%)
Panniculitis (4 mg/day (N = 7)): 0 (0%)
Patients Reporting at Least One Related TEAE (4 mg/day (N = 7)): 7 (100%)
Polyuria (4 mg/day (N = 7)): 1 (14%)
Pruritus (4 mg/day (N = 7)): 2 (29%)
Rash (4 mg/day (N = 7)): 3 (43%)
Skin discolouration (4 mg/day (N = 7)): 0 (0%)
Skin exfoliation (4 mg/day (N = 7)): 0 (0%)
Thrombocytopenia (4 mg/day (N = 7)): 1 (14%)
Vomiting (4 mg/day (N = 7)): 0 (0%)
Weight decreased (4 mg/day (N = 7)): 0 (0%)
Dose limiting toxicity (6 mg QD): Rash
Alanine aminotransferase increased (6 mg/3 W, QDx3d QW (N = 3)): 1 (33%)
Asthenia (6 mg/3 W, QDx3d QW (N = 3)): 0 (0%)
Catheter site inflammation (6 mg/3 W, QDx3d QW (N = 3)): 0 (0%)
Catheter site pain (6 mg/3 W, QDx3d QW (N = 3)): 0 (0%)
Decreased appetite (6 mg/3 W, QDx3d QW (N = 3)): 0 (0%)
Diarrhoea (6 mg/3 W, QDx3d QW (N = 3)): 0 (0%)
Dry skin (6 mg/3 W, QDx3d QW (N = 3)): 0 (0%)
Dysgeusia (6 mg/3 W, QDx3d QW (N = 3)): 0 (0%)
Dyspnoea (6 mg/3 W, QDx3d QW (N = 3)): 0 (0%)
Fatigue (6 mg/3 W, QDx3d QW (N = 3)): 0 (0%)
Headache (6 mg/3 W, QDx3d QW (N = 3)): 0 (0%)
Hyperbilirubinaemia (6 mg/3 W, QDx3d QW (N = 3)): 1 (33%)
Hypercholesterolaemia (6 mg/3 W, QDx3d QW (N = 3)): 0 (0%)
Hyperglycaemia (6 mg/3 W, QDx3d QW (N = 3)): 1 (33%)
Hypertransaminasaemia (6 mg/3 W, QDx3d QW (N = 3)): 0 (0%)
Hypertriglyceridaemia (6 mg/3 W, QDx3d QW (N = 3)): 0 (0%)
Hypomagnesaemia (6 mg/3 W, QDx3d QW (N = 3)): 0 (0%)
Hypotension (6 mg/3 W, QDx3d QW (N = 3)): 0 (0%)
Low fever (6 mg/3 W, QDx3d QW (N = 3)): 0 (0%)
Lymphopenia (6 mg/3 W, QDx3d QW (N = 3)): 0 (0%)
Mucosal inflammation (6 mg/3 W, QDx3d QW (N = 3)): 2 (67%)
Nausea (6 mg/3 W, QDx3d QW (N = 3)): 2 (67%)
Palmar-plantar erythrodysaesthesia syndrome (6 mg/3 W, QDx3d QW (N = 3)): 0 (0%)
Patients Reporting at Least One Related TEAE (6 mg/3 W, QDx3d QW (N = 3)): 3 (100%)
Platelet count decreased (6 mg/3 W, QDx3d QW (N = 3)): 1 (33%)
Pruritus (6 mg/3 W, QDx3d QW (N = 3)): 1 (33%)
Pyrexia (6 mg/3 W, QDx3d QW (N = 3)): 0 (0%)
Rash (6 mg/3 W, QDx3d QW (N = 3)): 1 (33%)
